Experimental data: article PMC7775851 (Journal of Pharmaceutical Analysis, 2019)

Columns and labels:
[1] = Stability of ilaprazole racemate stock solution; format: physicochemical; settings: stock solution in acetonitrile, −80 °C for 15 days
CYP3A = settings: cited from earlier work

- Stability of stock solution (in words) [1]: stable
SMILES: COc1ccnc(C[S+]([O-])c2nc3cc(-n4cccc4)ccc3[nH]2)c1C (racemic) [ilaprazole racemate, ilaprazole]
- Metabolizing enzyme (CYP3A): mainly metabolized by CYP3A
